# Read-outs that look alike come from different tables or passages of the source.
# Columns and labels:
# fundic mucosa = assay: Fundic mucosa hyperplasia induced by pentagastrin in mice; type: in vivo; details: 21 days
# Text: (§1) Inhibitory effect on the rate of growth of tumorous colic cells induced by pentagastrin
# (§2) Gastrin has a trophic effect on the digestive epithelium.
# (§3) Upon the basis of this premise, it was wished to investigate whether the gastrin-specific antagonists of the invention could antagonise the growth of experimentally-induced gastrointestinal tumours.
# (§4) Male mice weighing 20-25 g were inoculated subcutaneously in the interscapular region with a suspension of 8×10^4 tumour cells of a mouse colic adenocarcinoma.
# (§5) After 21 days, the animals were killed and the fundic mucosa and the tumours were removed, weighed and extracted to determine the DNA.
# [1] = molecular target: T1, gastrin receptor sites on the cerebral cortex membranes of mice (Mus musculus, UniProt P56481); assay: Inhibition of the binding of pentagastrin to mouse cortical membranes
# T1 construct: Mouse cortical tissue; from tissue; host or cells: mouse cerebral cortex membranes
# T1 sequence (P56481 1-453): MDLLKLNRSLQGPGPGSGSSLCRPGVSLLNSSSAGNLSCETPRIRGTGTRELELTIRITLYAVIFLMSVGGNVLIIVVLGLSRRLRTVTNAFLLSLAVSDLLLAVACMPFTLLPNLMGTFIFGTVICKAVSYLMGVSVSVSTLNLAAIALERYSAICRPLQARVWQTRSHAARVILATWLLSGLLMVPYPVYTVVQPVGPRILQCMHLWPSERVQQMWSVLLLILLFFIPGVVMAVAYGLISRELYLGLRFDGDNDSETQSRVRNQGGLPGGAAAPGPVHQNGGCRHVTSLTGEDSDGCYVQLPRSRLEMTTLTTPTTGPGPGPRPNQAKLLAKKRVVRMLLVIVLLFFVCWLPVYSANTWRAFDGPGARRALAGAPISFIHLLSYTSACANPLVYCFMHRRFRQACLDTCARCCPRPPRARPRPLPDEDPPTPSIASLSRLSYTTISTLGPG
# Text: Tests on binding to cerebral cortex membranes of mice
# The capacities of some of the compounds of the invention to inhibit the binding of pentagastrin to the gastrin receptor sites on the cerebral cortex membranes of mice was to be evaluated. Pentagastrin tritiate[beta-alanyl-3-3H(N)] was used as the ligand.
# Mouse cortical tissue Was homogenised cold in 20 volumes of tris buffer (pH 7.7). After washing and centrifuging, the final pellet was resuspended in 20 volumes of binding buffer containing, inter alia, TRIS, BSA and Bacitracin. 0.4 ml of the membrane thus obtained were then incubated with a radioactive tracer and the compounds under test for 40 minutes at 37° C.
# After the supernatant liquid had been removed by centrifuging, the radioactivity associated with the pellet was determined with a liquid scintillator (a beta-counter). The specific binding was the difference between the binding in the absence and in the presence of 10^-5M pentagastrin.
# [2] = Acute intravenous toxicity in rats (LD50); details: rat, in vivo
# Text: The activity of these compounds against gastric secretion is linked specifically to their antigastrin activity.
# [3] = system: gastric acid secretion induced by pentagastrin; assay: Antisecretive activity in conscious dogs carrying gastric fistulae; type: in vivo, dogs (beagles); details: for ED50: Canis lupus familiaris, iv, read-out: ID50 (the source's name)
# Method: Antisecretive activity in conscious dogs
# Male beagles weighing about 10 Kg were used and carried gastric fistulae at the level of the greater curvature, connected near the antral region, steel cannulae 5 cm long and 2 cm wide being inserted for collecting the gastric juices externally. After a period of about one month to recover from the operation, and after suitable conditioning, the animals were treated with pentagastrin at a dose of 3 mcg/Kg/h. The Stimulant, dissolved in a physiological solution, was perfused into the femoral vein for 180 minutes at a rate of 1.9 ml/h. After perfusion for 60 minutes (the basal stimulation) the product under test, dissolved in a physiological solution (1 ml/Kg), was administered in a bolus into the contra-lateral vein and, at the same time, the perfusion of the stimulant continued for a further 120 minutes. The acid secretion was recorded continuously as a function of time.
# The activity of the product was evaluated as the percentage reduction in the secreted acidity after the administration of the product compared with the base acidity measured during the first 60 minutes of collection during which only the pentagastrin was present, for each of the periods 0-60 and 60-120 minutes after the product had been administered in a bolus.
# Different doses of the compounds (C-1 and C-5) tested were administered so that an ID50, that is the dose (in mg/Kg I.V.) capable of inhibiting the effect of the pentagastrin by 50% could be calculated.
# The results obtained are given in the following table (Tab. 2) in which the % variations from the base (the mean ± standard deviations calculated on the values obtained from 4 animals) are given for the various doses administered under the stimulus of 3 mcg/Kg/h of pentagastrin, as well as the activities of the compounds, calculated as their ID50s, and the correlation coefficients of the regression lines calculated on the basis of the experimental data.
# [4] = system: mouse colic adenocarcinoma; assay: Colic tumorous growth induced by pentagastrin in mice; type: in vivo; details: 21 days
# Text: as §1, §2, §3, §4, §5
# [5] = pentagastrin + C-5 3 mg/Kg i.p. twice a day
# [6] = pentagastrin + C-5 10 mg/Kg i.p. twice a day
smiles,measurement,setting,value
O=C(O)CC[C@@H](NC(=O)c1cc(Cl)cc(Cl)c1)C(=O)N1CCC2(CCCC2)CC1 [Compound C5],Effect on the fundic mucosa (in words),fundic mucosa; mice,can inhibit both the aforementioned trophic effects of pentagastrin in a significant and dose-dependent manner
same,"Fundic DNA, Mean ± SD",fundic mucosa; [5],0.268 ± 0.03 mg
same,"Weight of the mucosa fundica, Mean ± SD",fundic mucosa; [5],23.85 ± 3.48 mg
same,"Fundic DNA, Mean ± SD",fundic mucosa; [6],0.252 ± 0.03 mg
same,"Weight of the mucosa fundica, Mean ± SD",fundic mucosa; [6],18.90 ± 2.54 mg
same,IC50,"[1]; pentagastrin tritiate ligand, 40 minutes at 37° C., read-out: IC50, inhibition of the binding of pentagastrin",110 nM
same,Activity on the central receptor relative to C-30,[1]; vs C-30,three times less active
same,LD50,[2],~400 mg/kg
same,selectivity ratio,[2],~25
same,Variation % (Mean ± SD) from base (0-60 min),"[3]; 5 mg/Kg I.V., period 60-120 min",-36.0 ± 16.3%
same,Variation % (Mean ± SD) from base (0-60 min),"[3]; 5 mg/Kg I.V., period 120-180 min",-20.5 ± 13.1%
same,Variation % (Mean ± SD) from base (0-60 min),"[3]; 10 mg/Kg I.V., period 60-120 min",-59.5 ± 5.0%
same,Variation % (Mean ± SD) from base (0-60 min),"[3]; 10 mg/Kg I.V., period 120-180 min",-31.9 ± 1.3%
same,Variation % (Mean ± SD) from base (0-60 min),"[3]; 30 mg/Kg I.V., period 60-120 min",-67.8 ± 4.8%
same,Variation % (Mean ± SD) from base (0-60 min),"[3]; 30 mg/Kg I.V., period 120-180 min",-48.1 ± 1.7%
same,ED50,"[3]; 1 h, conscious dogs, I.V. bolus, period 60-120 min (first hour after administration)",8.9 mg/kg
same,ED50,"[3]; 2 h, conscious dogs, I.V. bolus, period 120-180 min (second hour after administration)",32.5 mg/kg
same,ID50,"[3]; conscious dogs, I.V. bolus, period 60-120 min (first hour after administration), 60 min",~10 mg/kg
same,Inhibition of gastric acid secretion induced by pentagastrin in dogs (in words),"[3]; conscious dogs, first hour after bolus",potent inhibitors of gastric acid secretion induced by pentagastrin in dogs
same,Effect on colic tumour weight and DNA content (in words),[4]; mice,can inhibit both the aforementioned trophic effects of pentagastrin in a significant and dose-dependent manner
same,"Tumorous DNA, Mean",[4]; [5],3.24 ± 0.42 mg
same,"Weight of the colic tumor, Mean ± SD",[4]; [5],601.5 ± 91.7 mg
same,"Tumorous DNA, Mean",[4]; [6],2.94 ± 0.31 mg
same,"Weight of the colic tumor, Mean ± SD",[4]; [6],554 ± 61.7 mg
